Reference: US9657037B2, “Pyrrole compounds with silicon incorporation” (COUNCIL OF SCIENTIFIC AND INDUSTRIAL RESEARCH, priority 2013, dated 2017)
≈ marks a conversion by molar mass, not a printed value.

Test system: Mycobacterium tuberculosis H37Rv
Test: Antitubercular activity, growth inhibition by Alamar-Blue / resazurin microtiter assay
Assay type: cell-based
Details: H37RV

Going from `COc1ccc(-c2c(CN3CC[Si](C)(C)CC3)cc(C)n2-c2ccc(F)cc2)cc1` [Compound 14, 1-((1-(4-fluorophenyl)-2-(4-methoxyphenyl)-5-methyl-1H-pyrrol-3-yl)methyl)-4,4-dimethyl-1,4-azasilinane] to `CSc1ccc(-c2c(CN3CC[Si](C)(C)CC3)cc(C)n2-c2ccc(F)cc2)cc1` [Compound 10b, 1-((1-(4-fluorophenyl)-5-methyl-2-(4-(methylthio)phenyl)-1H-pyrrol-3-yl)methyl)-4,4-dimethyl-1,4-azasilinane], the MIC falls from 3.12 µg/mL (≈ 7.38 µM) to 1.56 µg/mL (≈ 3.56 µM) (2-fold).

`CSc1ccc(-c2cc(CN3CC[Si](C)(C)CC3)c(C)n2-c2ccc(C(C)C)cc2)cc1` [Compound 12a, 1-((1-(4-isopropylphenyl)-2-methyl-5-(4-(methylthio)phenyl)-1H-pyrrol-3-yl)methyl)-4,4-dimethyl-1,4-azasilinane] and `Cc1c(CN2CC[Si](C)(C)CC2)cc(-c2ccc(Cl)cc2)n1-c1ccc(C(C)C)cc1` [Compound 19, 1-((5-(4-chlorophenyl)-1-(4-isopropylphenyl)-2-methyl-1H-pyrrol-3-yl)methyl)-4,4-dimethyl-1,4-azasilinane] are the same in MIC: 0.04 µg/mL (≈ 0.0864 µM) for the first, 0.04 µg/mL (≈ 0.0887 µM) for the second.

`Cc1c(CN2CC[Si](C)(C)CC2)cc(-c2ccc(C(C)C)cc2)n1-c1ccc(Cl)cc1` [Compound 11a, 1-((1-(4-chlorophenyl)-5-(4-isopropylphenyl)-2-methyl-1H-pyrrol-3-yl)methyl)-4,4-dimethyl-1,4-azasilinane] and `Cc1c(CN2CC[Si](C)(C)CC2)cc(-c2ccc(Cl)cc2)n1-c1ccc(Cl)cc1` [Compound 9, 1-((1,5-bis(4-chlorophenyl)-2-methyl-1H-pyrrol-3-yl)methyl)-4,4-dimethyl-1,4-azasilinane] are the same in MIC: 0.04 µg/mL (≈ 0.0887 µM) for the first, 0.04 µg/mL (≈ 0.0902 µM) for the second.

`CCc1ccc(-n2c(-c3ccc(Cl)cc3)cc(CN3CC[Si](C)(C)CC3)c2C)cc1` [Compound 13, 1-((5-(4-chlorophenyl)-1-(4-ethylphenyl)-2-methyl-1H-pyrrol-3-yl)methyl)-4,4-dimethyl-1,4-azasilinane] and `CCc1ccc(-c2cc(CN3CC[Si](C)(C)CC3)c(C)n2-c2ccc(OC)cc2)cc1` [Compound 16, 1-((5-(4-ethylphenyl)-1-(4-methoxyphenyl)-2-methyl-1H-pyrrol-3-yl)methyl)-4,4-dimethyl-1,4-azasilinane] are the same in MIC: 0.08 µg/mL (≈ 0.183 µM) for the first, 0.08 µg/mL (≈ 0.185 µM) for the second.

Compared with `Cc1ccc(-c2cc(CN3CC[Si](C)(C)CC3)c(C)n2-c2ccc(F)cc2)cc1` [Compound 17, 1-((1-(4-fluorophenyl)-2-methyl-5-(p-tolyl)-1H-pyrrol-3-yl)methyl)-4,4-dimethyl-1,4-azasilinane], `CSc1ccc(-c2cc(CN3CC[Si](C)(C)CC3)c(C)n2-c2ccc(F)cc2)cc1` [Compound 10a, 1-((1-(4-fluorophenyl)-2-methyl-5-(4-(methylthio)phenyl)-1H-pyrrol-3-yl)methyl)-4,4-dimethyl-1,4-azasilinane] is 2-fold higher in MIC: 0.04 µg/mL (≈ 0.0984 µM) for the first, 0.08 µg/mL (≈ 0.182 µM) for the second.

Going from `CSc1ccc(-c2c(CN3CC[Si](C)(C)CC3)cc(C)n2-c2ccc(C(C)C)cc2)cc1` [Compound 12b, 1-((1-(4-isopropylphenyl)-5-methyl-2-(4-(methylthio)phenyl)-1H-pyrrol-3-yl)methyl)-4,4-dimethyl-1,4-azasilinane] to `CCOc1ccc(-c2c(CN3CC[Si](C)(C)CC3)cc(C)n2-c2ccc(OC)cc2)cc1` [Compound 18, 1-((2-(4-ethoxyphenyl)-1-(4-methoxyphenyl)-5-methyl-1H-pyrrol-3-yl)methyl)-4,4-dimethyl-1,4-azasilinane], the MIC rises from 1.25 µg/mL (≈ 2.7 µM) to 5 µg/mL (≈ 11.1 µM) (4-fold).

Work on `Cc1c(CN2CC[Si](C)(C)CC2)cc(-c2ccc(Cl)cc2)n1-c1ccccc1` [Compound 15, 1-((5-(4-chlorophenyl)-2-methyl-1-phenyl-1H-pyrrol-3-yl)methyl)-4,4-dimethyl-1,4-azasilinane] yielded an MIC of 0.04 µg/mL (≈ 0.0978 µM).

Same assay, conditions: H37Rv, 7H9-OADC media with 0.5% glycerol and 1 mg ml−1 tryptone, 37° C., 96-well plates, visual readout, read-out: MIC

Work on `Cc1c(CN2CCN(C)CC2)cc(-c2ccc(Cl)cc2)n1-c1ccc(Cl)cc1` [BM212, 1,5-diaryl-2-methyl-3-(4-methylpiperazin-1-yl)methyl-pyrrole, reference compound] yielded an MIC of 1.56 µg/mL (≈ 3.76 µM).

Test system: Mycobacterium tuberculosis H37Rv
Test: not given
Details: according to literature (Biava. M et. al; J. Med. Chem 2008; 51; 3644); cited from earlier work

In the case of `Cc1c(CN2CCN(C)CC2)cc(-c2ccc(Cl)cc2)n1-c1ccc(Cl)cc1` [BM212, 1,5-diaryl-2-methyl-3-(4-methylpiperazin-1-yl)methyl-pyrrole, reference compound], the MIC is given as 0.7 µg/mL (≈ 1.69 µM).
